Source: patent US11504367B2, “Compounds and methods for treating oxalate-related diseases” (OxaluRx, Inc., priority 2019, dated 2022)

Key:
[1] = biological target: glycolate oxidase (GOX) in HepaRG-CAR cells (Homo sapiens (Human), UniProt Q9UJM8); experiment: HepaRG-CAR cell-based assay for quantitation of glycolate oxidase inhibition (cellular glycolate flux, GC-MS)
[2] = system: alanine-glyoxylate aminotransferase (AGXT) knockout mice; experiment: In vivo efficacy in Agxt−/− mouse model of primary hyperoxaluria 1 (urine oxalate and glycolate)
Description: The in-vivo activity of test compounds was evaluated using alanine-glyoxylate aminotransferase (AGXT) knockout mice from Jackson Laboratory (Bar Harbor, Me.), as reported by Martin-Higueras et al., Molecular Therapy, vol. 24 no. 4, 719-725, 2016. Ten to 15-week-old male AGXT knock-out mice (Agxt−/−) were used to assess the in-vivo activity of test compounds on urinary oxalate and glycolate.
Male Agxt−/− mice were housed under standard conditions (five animals per cage) and allowed free access to food and water. Upon study initiation, animals were treated with test compounds by oral gavage formulated in 20% (2-hydroxypropyl)-β-cyclodextrin (10 μL/g). […]
Urine oxalate was measured using a commercially available clinical oxalate oxidase assay (Trinity Biotech, Wicklow, Ireland) following the manufacturer's instructions.
Plasma and urine glycolate were determined by methods described in Dutta et al., “Inhibition of Glycolate Oxidase with Dicer-substrate siRNA Reduces Calcium Oxalate Deposition in a Mouse Model of Primary Hyperoxaluria Type 1.” Mol Ther., 24(4) 770-778 (2016) using liquid chromatography combined with mass spectrometry detection (LC/MS) on a triple-quadrupole instrument by electrospray ionization and multiple reaction monitoring. […] A two-step protein precipitation determined plasma glycolate. […]

[3] = In-vivo pharmacokinetic evaluation (exposure, AUC fold-over Example 1); conditions: male CD-1 mice, 10 mg/kg oral gavage in 20% (2-Hydroxypropyl)-β-cyclodextrin, plasma at 0.5, 2 and 6 hours post-dose; AUC expressed as fold-over Example 1
Description: In-vivo exposure of test compounds was determined in 5-6 week old male CD-1 mice. Mice (n=2/compound) received 10 mg/kg of each compound formulated in 20% (2-Hydroxypropyl)-β-cyclodextrin (10 μL/g) by oral gavage. At 0.5 hours, 2 hours, and 6 hours post-dose, blood samples were collected from the submandibular vein using EDTA as an anticoagulant and stored on ice. Plasma samples were obtained by centrifugation at 4° C. and were analyzed immediately or stored at −20° C. until analysis. Compounds were extracted from mouse plasma with acetonitrile and quantified by LC-MS-MS in the negative ion mode using a standard curve.

[4] = biological target: recombinant full-length human hydroxyacid oxidase 1 (HAO1), the equivalents of hGOX (Homo sapiens (Human), UniProt Q9UJM8); experiment: In-vitro human glycolate oxidase (hGOX) assay (Amplex red fluorescence); assay type: biochemical; conditions: 6 nM recombinant human GO, 85 μM glycolate, 10 min preincubation
Sequence of recombinant full-length human hydroxyacid oxidase 1 (HAO1), the equivalents of hGOX (Q9UJM8 whole entry): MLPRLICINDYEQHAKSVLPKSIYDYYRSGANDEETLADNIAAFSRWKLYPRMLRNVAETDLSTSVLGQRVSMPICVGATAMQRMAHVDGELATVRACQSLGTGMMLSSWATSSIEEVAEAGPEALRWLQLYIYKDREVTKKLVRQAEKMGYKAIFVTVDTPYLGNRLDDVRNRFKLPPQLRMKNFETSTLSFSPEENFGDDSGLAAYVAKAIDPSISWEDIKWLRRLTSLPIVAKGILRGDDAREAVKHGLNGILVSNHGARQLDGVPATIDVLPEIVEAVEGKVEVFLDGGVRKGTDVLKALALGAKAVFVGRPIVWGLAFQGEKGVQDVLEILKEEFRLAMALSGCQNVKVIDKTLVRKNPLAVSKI
Outline: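 Activity was read as Amplex Red fluorescence (560/590 nm), with 50 μM reagent added after a 10 min room-temperature incubation. The enzyme, full-length human HAO1, was in pH 7.4 HEPES buffer containing KCl, NaCl, MgCl2 and 0.01% Triton X-100.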

[5] = Alternate plasma stability assay; assay type: in vitro ADME, human, dog, mouse; conditions: 5 μM
Description: Plasma stability. Stock compounds were prepared for testing the stability in human (BioIVT, #BRH1589665), dog (BioIVT, #BGL102122) and mouse (BioIVT, #MSE37887) plasma. 1 mM test compound working solution was prepared in DMSO. A one mM propantheline working solution was prepared in acetonitrile. Propantheline was used as a positive control for human, dog, and mouse plasma in this assay.
Plasma (398 μL) for each compound was added into an incubation plate, and the plate was pre-warmed for 15 minutes at 37° C. The reaction was initiated upon addition of 2 μL of 1 mM working solution (test compounds or control compound) to the plasma to reach a final concentration of 5 μM. The reaction was incubated at 37° C. Aliquots of 50 μL were taken from the reaction samples at 0 and 60 minutes. Adding 450 μL cold acetonitrile containing internal standards stopped the reaction. Once the reaction was stopped, the samples were vortexed for 10 minutes, followed by centrifugation at 3,220 g for 40 minutes to precipitate proteins. The supernatant (100 μL) was transferred to a new plate and diluted with ultrapure water according to the LC-MS signal response and peak shape. Samples were analyzed by LC-MS/MS.

[6] = Alternate liver microsome metabolic stability assay; assay type: in vitro ADME, human, monkey, dog, rat, mouse; conditions: liver microsomes, 1 μM, at 30 minutes, all species tested
Description: Metabolic Stability. For evaluating the metabolic stability in liver microsomal preparations, two buffers were prepared. Buffer A consisted of 10 mM NADPH and 0.5 mg/mL microsomes in 100 mM of phosphate buffer. Buffer B consisted of 0.5 mg/mL microsomes in 100 mM of phosphate buffer. The reference compound (verapamil) and test compound were prepared as 100 μM DMSO stocks. The source of liver microsomes was as follows: Human (BD Gentest, #452117), monkey (RILD, #LM-SXH-02M), dog (BD, #452601), Rat (BioIVT, #M00001), and mouse (BioIVT, #M00501).
The reaction was started by adding 2.5 μL of 100 μM control compound or test compound solutions to 216.25 μL of prewarmed (37° C.) assay buffer. The final concentration of the control compound and test compounds were 1 μM. […] The reaction was stopped by adding 5 volumes of cold acetonitrile with internal standards (100 nM alprazolam, 200 nM caffeine, and 100 nM tolbutamide). Samples were centrifuged at 3,220 g for 30 minutes. An aliquot of 100 μL of the supernatant was mixed with 100 μL of ultra-pure water and then used for LC-MS/MS analysis.

[7] = system: Caco-2 cell monolayers; experiment: Alternate Caco-2 permeability assay; assay type: in vitro ADME; conditions: alternate Caco-2 assay, 10 μM, 2 hours
Description: A working solution for the Caco-2 permeability assay was prepared by diluting test compound stock solutions (2 mM in DMSO) with HBSS (10 mM, pH 7.4) to 10 μM working solution. Metoprolol, erythromycin, and cimetidine were used as the control compounds.
To determine the rate of drug transport in the apical-to-basolateral direction (A-B), 125 μL of the working solution was added to the Transwell insert (apical compartment). 50 μL of each sample was immediately transferred from the apical compartment to 200 μL of acetonitrile containing internal standards (100 nM alprazolam, 200 nM caffeine, and 100 nM tolbutamide) in a new 96-well plate as the initial donor sample (A-B). Samples were vortexed at 1000 rpm for 10 minutes, and the wells in the receiver plate (basolateral compartment) were subsequently filled with 235 μL of transport buffer. Plates were incubated at 37° C. for 2 hours.
To determine the rate of drug transport in the basolateral-to-apical direction (B-A), 285 μL of the working solution was added to the receiver plate wells (basolateral compartment). 50 μL of each sample was transferred immediately from the basolateral compartment to 200 μL of acetonitrile containing internal standards (100 nM alprazolam, 200 nM Caffeine, and 100 nM tolbutamide) in a new 96-well plate as the initial donor sample (B-A). Samples were vortexed at 1000 rpm for 10 minutes, and 75 μL of transport buffer was added to the Transwell insert (apical compartment). Plates were incubated at 37° C. for 2 hours. […]
To determine the Lucifer Yellow leakage after 2 hour transport period, the stock solution of Lucifer yellow was prepared in DMSO and diluted with HBSS (10 mM HEPES, pH 7.4) to reach the final concentration of 100 μM. […] The Lucifer Yellow fluorescence (to monitor monolayer integrity) signal was measured in a fluorescence plate reader at 480 nm excitation and 530 nm emission.

Sequence of glycolate oxidase (GOX) in HepaRG-CAR cells (Q9UJM8 whole entry): as above

For `C#Cc1cccc(Oc2[nH]nnc2C(=O)O)c1` [Example 1, 5-(3-Ethynylphenoxy)-1H-1,2,3-triazole-4-carboxylic Acid], the IC50 [1] was 2500 nM, the “inhibition of urine oxalate” value ([2]; compound 1 dosed at 10 and 30 mg/kg, vs vehicle-treated control) was “about 30%” and the urine glycolate change ([2]; compound 1 dosed twice daily at 10 and 30 mg/kg) was “concomitant increase in urine glycolate”. The “AUC Fold over Ex. 1” value [3] was 1.0 and the IC50 [4] was 21 nM.

With `CS(=O)(=O)c1ccc(C#Cc2ccc(Oc3[nH]nnc3C(=O)O)cc2)cc1` [Example 190, 5-(4-(2-(4-(Methylsulfonyl)phenyl)ethynyl)phenoxy)-1H-1,2,3-triazole-4-carboxylic Acid] the “plasma stability half-life (compared with Example 1)” value [5] was “similarly long or longer half-lives” and the IC50 [4] was 3 nM.

With `CS(=O)(=O)c1ccc(C#Cc2cccc(Oc3[nH]nnc3C(=O)O)c2)cc1` [Example 255, 5-(3-(2-(4-(Methylsulfonyl)phenyl)ethynyl)phenoxy)-1H-1,2,3-triazole-4-carboxylic Acid] the compound remained intact [6] was 100%, the “plasma stability half-life (compared with Example 1)” value [5] was “similarly long or longer half-lives” and the “AUC Fold over Ex. 1” value [3] was 0.1. It also gave an IC50 [4] of 8 nM.

In the case of `O=C(O)c1nn[nH]c1Oc1cccc(C#CCC2CC2)c1` [Example 302, 5-(3-(3-Cyclopropylprop-1-ynyl)phenoxy)-1H-1,2,3-triazole-4-carboxylic Acid], the compound remained intact [6] is reported as 100%, the “plasma stability half-life (compared with Example 1)” value [5] is reported as “similarly long or longer half-lives” and the “Papp Efflux Ratio” value [7] is reported as “single digits”. The “AUC Fold over Ex. 1” value [3] was 4.1 and the IC50 [4] was 13 nM.

In the case of `CC(C)CC#Cc1cccc(Oc2[nH]nnc2C(=O)O)c1` [Example 343, 5-(3-(4-Methylpent-1-ynyl)phenoxy)-1H-1,2,3-triazole-4-carboxylic Acid], the compound remained intact [6] is reported as 100%, the “plasma stability half-life (compared with Example 1)” value [5] is reported as “similarly long or longer half-lives” and the “Papp Efflux Ratio” value [7] is reported as “single digits”. For the same molecule, the “AUC Fold over Ex. 1” value [3] was 4.3 and the IC50 [4] was 10 nM.

For `O=C(O)c1nn[nH]c1Oc1cccc(C#CCc2ccc(F)cc2)c1` [Example 354, 5-(3-(3-(4-Fluorophenyl)prop-1-ynyl)phenoxy)-1H-1,2,3-triazole-4-carboxylic Acid], the “AUC Fold over Ex. 1” value [3] was 2.4 and the IC50 [4] was 5 nM.

With `O=C(O)c1nn[nH]c1Sc1cccc(C#CCC2CC2)c1` [Example 356, 5-(3-(3-Cyclopropylprop-1-ynyl)phenylthio)-1H-1,2,3-triazole-4-carboxylic Acid] the “Papp Efflux Ratio” value [7] was “single digits”, the “AUC Fold over Ex. 1” value [3] was 7.4 and the IC50 [4] was 6 nM.
